According to a melting point compilation (Tetko et al.; mined from patent text by program, amines drawn as free bases though some values may be those of a salt):

| melting point [°C] | Structure (SMILES) |
| --- | --- |
| 92 | CCCCCCOC(=O)C1=C(C)NN=C(CC)C1c1cccc([N+](=O)[O-])c1 (stereo unspecified) |
| 132 | COc1ccc(-c2nnc(Cl)cc2C)cc1 |
| 229 to 230 | Cc1c(C)c2c(c(C)c1NC(=O)CC(C)(C)C)C(N1CCCCC1)C(C)(C)O2 (stereo unspecified) |
| 122 to 123 | Cc1c(C)c(N)c2c(c1C)C(c1ccc(C(C)C)cc1)CO2 (stereo unspecified) |
| 72 to 73 | COc1ccc2c(c1)CCc1ccccc1C2=O |
| 222 to 225 | COc1cc(-c2nc(NCCC(=O)O)c3c(C)c(C#N)sc3n2)cc(OC)c1OC |
| 106 to 108 | COC(=O)c1ccccc1NS(=O)(=O)NC(C)C |
| 280 to 282 | Cc1ccncc1-c1cc2ccncc2c(N)n1 |
| 154 | COc1nc2ccnn2c2ncccc12 |
| 124 to 126 | COc1ccc(-c2c(CO)cc(OC)c(OC)c2OC)c(CO)c1OS(C)(=O)=O |
| 225 | COC(=O)Nc1nc2cnc3ccccc3c2n1CC(C)(C)O |
| 104 to 106 | Cc1cc(C(=O)N2Cc3cccn3Cc3ccccc32)cc(C)c1-n1c(C)ccc1C |
| 157 | CC(C)N(NC(=O)c1ccc(Cl)c(Cl)c1)C(=O)c1ccccc1 |
| > 250 | CCN(C)c1nc2cc(NC(=O)c3c(C(=O)O)cnn3C)ccn2n1 |
| 127 to 130 | COCCN1C(=O)C(C)(C)C(=O)N(C)c2cc(CN(CCn3cc(C)c4occc4c3=O)Cc3cccnc3C)ccc21 |
| 202 to 203 | O=c1[nH]c(=O)n(CCCCBr)c2cc([N+](=O)[O-])ccc12 |
| 288 to 291 | COC(=O)CCC(=O)Nc1ccc2c(=O)n3c(nc2c1)C(=Cc1ccccc1)CC3 |
| 178 to 179 | COc1c(F)c(F)cc2c(=O)c(C(=O)O)cn(C3COC3)c12 |
| 82 | CCOC(=O)C1=C(C)NNC(CC)=C1c1ccco1 |
| 115 | O=C1c2ccccc2C(=O)N1Cc1nc(C2CC2)no1 |

| melting point [°C] | Structure (SMILES) |
| --- | --- |
| 111 to 112 | O=C(Oc1c(F)c(F)c(F)c(F)c1F)c1ccccc1O |
| 122 to 125 | COc1nc2cc(F)cc(CBr)c2nc1OC |
| 212 to 213 | Cc1c(NC(=O)CC(C)(C)C)cc2c(c1C)OC(C)(C)C2(O)Cc1ccccc1 (stereo unspecified) |
| 84 to 86 | C=CCc1cccc2c(=O)cc(-c3c(F)cccc3F)oc12 |
| 155 | CCOC(=O)C1=C(C)Nc2ncnc(OC(C)C)c2C1c1ccccc1C(F)(F)F (stereo unspecified) |
| 139 to 141 | CC1(C)CON(Cc2ccc(N3C(=O)c4cccnc4C3=O)cc2Cl)C1=O |
| 265 | NCCn1cnc2c(N)nc3ccccc3c21 |
| 193 to 196 | Cc1ccccc1-c1c2c(cc3ccc(O)cc13)-c1ccc(O)cc1CO2 |
| > 280 | CN1C(=O)Nc2ccccc2C1(O)C(=O)NC(N)=O (stereo unspecified) |
| 79 to 80 | CCN1CCN(CC)c2cc([N+](=O)[O-])ccc2C1=O |
| 160 to 162 | COc1ccc(-c2cc3ccccc3[nH]2)cc1NCc1cccc([N+](=O)[O-])c1 |
| 216 to 218 | CC(C)COc1ccc(-n2ncc(C(=O)O)c2Cl)cc1C#N |
| 116 | Cc1coc(N2CCCC2=O)n1 |
| 35 | Cn1nc(-c2ccc(Cl)cc2Cl)cc1OC(F)F |
| 226 to 228 | CSCc1cnc2c(C)cccc2c1O |
| 170 to 175 | Cc1nc2[nH]c(=O)ccc2c(C)c1C |
| 188 to 189 | CC(C)(C)C(NC(=O)c1ccc(Cl)cc1)NC(=NC#N)NCc1cccnc1 (stereo unspecified) |
| 90 to 91 | C=CCN1C(=O)C2CCc3c(OC)c(OC)cc(C)c3C2C1=O (stereo unspecified) |
| 276 | Cc1nccn1-c1nn(Nc2cnccn2)nc1-c1cccc(C#N)c1 |

The remaining lines, values behind:

| Structure (SMILES) | melting point [°C] |
| --- | --- |
| CC(=O)SCC(=Cc1ccc(-c2ccccc2)cc1)C(=O)NCCC(=O)OCc1ccccc1 | 76 |
| CCCCCCCCCCNC(=O)N[C@H]1CCCNC(=O)C1 | 97 to 98 |
| C/C(=C\c1ccc(OC(C)C)cc1Oc1ncc(C(F)(F)F)cc1Cl)C(=O)NS(=O)(=O)NCc1cnc(C)cn1 | 126 to 128 |
| O=C1CCCC(c2ccccc2)N1c1ccc(F)cc1 (stereo unspecified) | 87.5 to 88.5 |
| COC(=O)C1CCC2C3CC(=O)C4(O)CC(O)CCC4(C)C3CCC12C (stereo unspecified) | 258 to 260 |
| CCOC(=O)C(=O)N(O)Cc1ccc2c(c1)Cc1ccccc1-2 | 130 to 131 |
| CCCCCOc1ccc(CCOc2ccc(/C=C(\OCC)C(=O)O)cc2OCCCC)cc1Cl | 95 |
| COC(=O)c1ccc(NC(=O)C(=O)c2ccc3c(c2)C(C)(C)CCC3(C)C)cc1O | 146 to 147 |
| COC(=O)C(=O)Cc1nc([N+](=O)[O-])cn1C | 186 |
| CCC1C2C(C(=O)N1Cc1ccc3c(c1)OCO3)C(c1ccc(C#N)cc1)N1CCCC21 (stereo unspecified) | 150 to 151 |
| CC1CC2=C(Cc3ccccc32)C([Si](C)(C)C2CC(C)CC3=C2Cc2ccccc23)C1 (stereo unspecified) | 179 to 180 |
| CON(c1ccc([N+](=O)[O-])cc1[N+](=O)[O-])S(=O)(=O)c1cccc(Cl)c1 | 157 to 159 |
| CC12CC(C#N)(CC1=O)C(C)(C)O2 (stereo unspecified) | 74 to 76 |
| O=C(CBr)c1csc(C(F)(F)F)n1 | 36 to 37 |
| CCOC(=O)c1cn(Cc2ccc(OCc3coc(-c4ccccc4)n3)cc2)nc1-c1cccs1 | 114 to 115 |
| CC(=O)OCC(=O)C1(O)C(C)CC2C3CCC4=CC(=O)C=CC4(C)C3=CCC21C (stereo unspecified) | 202 to 205 |
| COC(=O)c1ccc(-c2nn(Cc3ccccc3)c3ccc([N+](=O)[O-])cc23)o1 | 134 to 135 |
| Oc1ccc(C(=S)N2CCOCC2)cc1 | 205 |
| CS(=O)c1ncccc1C(=O)c1cnoc1C1CC1 (stereo unspecified) | 148 to 152 |
| O=C(O)CC=C(c1ccccc1)c1ccccc1 | 109 to 111 |
| Nc1ccccc1C(=O)c1ccccn1 | 145 to 146 |

| Structure (SMILES) | melting point [°C] |
| --- | --- |
| CN1CCC(c2c(O)cc(O)c3c(=O)cc(-c4ccccc4Cl)oc23)C1CO (stereo unspecified) | 228 to 230 |
| O=C(O)Cc1cccc(OCc2ccc3oc([N+](=O)[O-])c(-c4ccccc4)c3c2)c1 | 144 to 145 |
| CN(CCc1ccccc1)C(=O)Cn1cc(C(=O)O)c2cc(OCc3ccccc3)ccc21 | 182 to 185 |
| O=C(O)c1cn(C2CC2)c2cc(N3CCNC(CF)C3)c(F)cc2c1=O (stereo unspecified) | 202 to 203 |
| O=C(O)CC1CCOc2ccc(Cl)cc21 (stereo unspecified) | 115 to 117 |
| COC(=O)c1cc(C#N)ccc1NC(=O)c1cccc(S(=O)(=O)N2CCOCC2)c1 | 184 to 185 |
| CCCN(CCC)C(=O)C(CCC(=O)OC)NC(=O)C(C(=O)OC)=C1SC=CS1 (stereo unspecified) | 115 to 117 |
| C1=CC(c2ccccc2)(c2ccccc2)CCS1 | 78 |
| OCc1nccc(N2CCCCC2)n1 | 92 to 93 |
| N#Cc1ccc(OCC(F)(F)C(F)(F)C(F)(F)C(F)(F)COc2ccc([N+](=O)[O-])cc2[N+](=O)[O-])cc1 | 89 to 90.6 |
| COc1ccccc1OCCCc1oc(N2CCOCC2)nc1-c1ccc(Cl)cc1 | 81 to 82 |
| N#CCc1cccc(C(=O)c2ccc(Cl)cc2)c1N | 181 to 182 |
| O=C1c2ccccc2-n2cnc(Cl)c2[C@@H]2CCCN12 | 233 to 234 |
| CC(C(O)C=Cc1ccc(Cl)cc1)n1cncn1 (stereo unspecified) | 117 to 118 |
| C1=CNC2=NCCN2C1 | 107 to 113 |
| [N-]=[N+]=Nc1ccc(Cl)cc1C(=O)c1ccccc1 | 81 to 83 |
| CNC(=S)NN=C(CCCCl)c1ccccc1 | 94 to 96 |
| O=C(CC1CC1)N[C@H]1CC[C@H](CCN2CCC(c3cccc4c3CCO4)CC2)CC1 | 189 |
| O=C(O)C1CCc2c(oc3cccc(Cl)c23)C1 (stereo unspecified) | 189 to 190 |
| BrCCCOc1ccc(OCCCBr)cc1 | 78 to 80 |
| CC(=O)OCC(=O)C1(O)CCC2C3CCC4=CC(=O)CCC4(C)C3=CCC21C (stereo unspecified) | 234 |

| Structure (SMILES) | melting point [°C] |
| --- | --- |
| Cc1cccc(C2CCCN2S(=O)(=O)c2ccc(F)cc2)c1 (racemic) | 80 |
| CC/C=C\C/C=C\C/C=C\CCCCCCCC(=O)Nc1c(OC)cc(OC)cc1OC | 86 to 88 |
| Fc1ccc2[nH]cc(C3=CCN(CC4CCc5ccccc5O4)CC3)c2c1 (stereo unspecified) | 172 to 175 |
| C=Cc1cnc2c(NC(=O)c3c(Cl)cccc3Cl)cccc2c1Cn1ccnc1 | 189 to 191 |
| OCCOCn1c(Cl)nc2c(Cl)c(Cl)c(Cl)c(Cl)c21 | 168 to 170 |
| CC1CC2=CC(=O)CCC2(C)C2C(=O)CC3(C)C(=O)CCC3C12 (stereo unspecified) | 235 to 237 |
| CCN1CCN(C(=O)OC2C3=C(SCCS3)C(=O)N2c2ccc(Cl)cn2)CC1 (stereo unspecified) | 140 |
| CCOC(=O)C(Cc1ccc(OCCN2CCC(C)(C)c3cc(C(=NO)c4ccccc4)ccc32)cc1)OCC (stereo unspecified) | 46 to 48 |
| CC1(C)CC(=O)CC(C)(C)N1SSSSN1C(C)(C)CC(=O)CC1(C)C | 148 to 150 |
| O=C(O)Cc1ccc(NC(=O)C(COc2cccc(Cl)c2)NS(=O)(=O)c2ccc(F)cc2)cc1 (racemic) | 195 to 197 |
| C[C@H](CSC(=O)c1ccc(Cl)c(S(N)(=O)=O)c1)C(=O)N1CCC[C@H]1C(=O)O | 143 to 146 |
| O=C(O)c1cc(S)n2ncnc2n1 | 230 to 232 |
| CC(=O)Nc1cc2c(Nc3ccc(Sc4nccn4C)c(Cl)c3)c(C#N)cnc2cc1N1CCC(N2CCCC2)CC1 | 243 to 255 |
| COc1ccc(-c2cccc(C3SC(N4CCOCC4)=NC3=O)n2)cc1-c1ccccc1 (stereo unspecified) | 214 to 217 |
| CCC[C@H]1CC[C@H]([C@H]2CC[C@H](c3cc(F)c(C[C@H](C)c4ccccc4)c(F)c3)CC2)CC1 | 93.7 |
| Cc1oc(-c2ccccc2)nc1CCOc1ccc(CC(F)(C(=O)NS(C)(=O)=O)c2ccccc2)cc1 (stereo unspecified) | 118 to 120 |
| COc1cc2c(cc1OC)CN(CCc1ccc(NC(=O)c3cccc4c(=O)cc(-c5ccccc5)oc34)cc1)CC2 | 135 to 140 |
| CCCc1c(OCCCCCCCC(=O)O)ccc(C(C)=O)c1O | 73 to 76 |
| CC(=O)N1Cc2cnc(C)n2-c2ccc(Cl)cc2C1c1ccccc1F (stereo unspecified) | 185 to 186 |
| O=C(O)CNC(=O)c1nc2ccc(OCC(F)(F)C(F)(F)C(F)(F)C(F)F)cc2cc1O | 170 to 172 |
